Reference: PMC11940214, “The Antimicrobial Peptide D-CONGA-Q7 Eradicates Drug-Resistant E. coli by Disrupting Bacterial Cell Membranes” (Biology, 2025)
Values after ≈ are worked out from the molar mass of the structure shown. Where a SMILES comes first, the peptide text is derived from it. [ ]: non-standard residue; d: D form.

Legend:
[1] = system: E. coli LN175 (mcr-1,NDM); format: cell-based, Escherichia coli
Method: (§1) The bacterial strains used in this study, including LN175, J27ab-2, K88, AD21R, and 21f54mr-1, were E. coli obtained from the Hunan Veterinary Engineering Research Center (Changsha, Hunan Province). Except for K88, all the strains were multidrug-resistant and carried multiple resistance genes, while K88 was a diarrhea-causing strain containing the ETEC gene.
(§2) The bacterial concentration was adjusted to 1 × 10^5 CFU/mL using a turbidimeter. Then, 100 μL of Mueller–Hinton Broth (MHB) broth was added to wells 1–11 of a 96-well plate, while 200 μL was added to well 12. Then, 100 μL of the drug was added to wells 1–11, which was followed by 100 μL of the bacterial suspension. Results were observed after incubation at 37 °C for 16–24 h.

[2] = system: erythrocyte; conditions: cited from earlier work
Source text: D-CONGA was originally screened from a library of 28,000 peptides using high-throughput synthesis principles and host cell compatibility. […] This study explored the antimicrobial mechanis ...

[3] = system: E. coli strain LN175, K88, J27ab-2; assay: Thermal and acid-base stability, read out as change in MIC; format: physicochemical, Escherichia coli; conditions: 1.024 mg/mL solution, then adjusted back
Method: For thermal stability, the D-CONGA-Q7 was prepared as a 1.024 mg/mL solution and heated in a water bath at room temperature, 60, 65, 70, 75, 80, 90 and 100 °C for 1 h, and autoclaved at 121 °C for 15 min and then cooled to room temperature, respectively. Acid–base stability, 1.024 mg/mL of D-CONGA-Q7 solution was used to adjust its pH to 2–12 using HCl and NaOH, and the pH of each tube was adjusted back to the initial tube pH after 1 h. The adjustment of solution pH = 3.89 (pH = 3.89 is the pH of D-CONGA-Q7 itself when dissolved) included the above use of the untreated samples as a control.
The antimicrobial activity of D-CONGA-Q7 was evaluated by assessing changes in its MIC against strain LN175, K88, J27ab-2.

[4] = in vitro; format: cell-based, porcine; conditions: pig
Method: Porcine small intestinal epithelial cells (IPEC-J2) were cultured in DMEM-F12 medium supplemented with 10% fetal bovine serum (TransGen Biotech, Beijing, China) and 1% penicillin–streptomycin (Beyotime Biotechnology, Shanghai, China). The cells were maintained in a humidified incubator at 37 °C with 5% CO2. Cells were passaged using 0.25% trypsin solution containing ethylenediaminetetraacetic acid (EDTA). Cells were seeded into 96-well plates at a density of 1 × 10⁴ cells per well. After 48 h, they were treated with varying concentrations of D-CONGA-Q7 and incubated with CCK-8 (Beyotime Biotechnology, Shanghai, China) for 1 h. The assay was measured using a […].

[5] = system: multidrug-resistant E. coli strains; format: cell-based, Escherichia coli
Method: as §1, §2

In the case of `CC(C)C[C@@H](NC(=O)[C@@H](CCC(N)=O)NC(=O)[C@@H](CCCNC(=N)N)NC(=O)[C@@H](CCCNC(=N)N)NC(=O)[C@@H](C)NC(=O)[C@@H](Cc1c[nH]c2ccccc12)NC(=O)[C@@H](CCCNC(=N)N)NC(=O)[C@H](N)CCCNC(=N)N)C(=O)N[C@H](C)C(=O)N[C@H](Cc1ccccc1)C(=O)N[C@H](C)C(=O)N[C@H](Cc1ccccc1)C(=O)N[C@H](CCCNC(=N)N)C(=O)N[C@H](CCCNC(=N)N)C(N)=O` [D-CONGA-Q7] (H-[dR][dR][dW][dA][dR][dR][dQ][dL][dA][dF][dA][dF][dR][dR]-NH2), the MIC [1] is listed as 4 µg/mL (≈ 2.12 µM), the erythrocyte hemolytic activity [2] is listed as “minimal erythrocyte hemolytic activity” and the “antimicrobial activity after exposure to pH 12 (acid-base stability)” value ([3]; pH 12, 1 h, read-out MIC) is listed as “reduction in activity”. For the same compound, the “antimicrobial activity after exposure to pH 2 to 11 (acid-base stability)” value ([3]; pH between 2 and 11 with HCl/NaOH, 1 h, read-out MIC against LN175, K88, J27ab-2) was “retained its antimicrobial activity”, the IC50 [4] was 188 µg/mL (≈ 99.8 µM) and the “MIC values for all strains tested” value [5] was “less than or equal to 4 μg/mL”.
